Measurements published in patent US6638938B1, “Method for preventing tissue injury from hypoxia” (Cell Therapeutics, Inc., priority 1993, dated 2003).

Columns and labels:
TNFα = test: immunohistochemical staining of lung samples for TNFα; format: in vivo; conditions: hemorrhaged/resuscitated mice or normal mice treated
Text: In sections from mice subjected to hemorrhage and resuscitation 3 days previously, staining for TNFα was present, particularly in the perivascular areas.

[1] = test system: mRNA for IL-1β, IL-6, TNFα and IFN-γ; test: cytokine mRNA by PCR in murine hemorrhage and resuscitation model; format: in vivo, Balb/C mice
Procedure: This example illustrates a study of Lisofylline in a murine hemorrhage and resuscitation model. Male Balb/C mice, 8-12 weeks of age, were obtained from Harlan-Sprague Dawley (Indianapolis, Ind.). The animals were kept on a 12 hour light/dark cycle with free access to food and water. With this model, 30% of the calculated blood volume (approximately 0.55 ml for a 20 gram mouse) was withdrawn from a methoxyflurane anesthetized mouse by cardiac puncture over a 60-second period. The blood was collected into a heparinized syringe (5 units heparin), kept at 37° C. for one hour, then reinfused into the mouse through a retroorbital plexus injection. Using this method, one is able to resuscitate all hemorrhaged mice without complication. The total period of methoxyflurane anesthesia is less than 2 minutes in all cases. The mortality rate with this hemorrhage protocol is approximately 12%, with all deaths occurring over the 24 hours post hemorrhage, and most deaths occurring within the one hour post hemorrhage.
Mice were treated with 100 mg/kg Lisofylline in 0.2 ml PBS and given initially i.v., by retroorbital injection, then i.p. every 8 hours for a total of 9 doses. In hemorrhaged mice, the Lisofylline in PBS was added to the shed blood, and then given retroorbitally with the blood during the resuscitation phase. In hemorrhaged Balb/C mice (n=3), sacrificed by exsanguination 5 minutes after receiving Lisofylline with the blood used for resuscitation, serum levels of Lisofylline were 44±6 μg/ml.
Intraparenchymal pulmonary mononuclear cells were isolated by collagenase digestion and Percoll® gradient purification using techniques previously described. Briefly, after the mouse was killed by cervical dislocation or exsanguination, the chest was opened and the lung vascular bed was flushed by injecting 3-5 ml of chilled (4° C.) PBS into the right ventricle. The lungs were then excised, avoiding the paratracheal lymph nodes, and washed twice in RPMI 1640. The lungs were minced finely, and the tissue pieces placed in RPMI 1640 with 5% FCS, penicillin/streptomycin, 10 mM HEPES, 50 μM 2-ME, 20 mM L-glutamine, containing 20 U/ml collagenase and 1 μg/ml DNase. Following incubation for 60 minutes at 37° C., any remaining intact tissue was disrupted by passage through a 21 gauge needle. Tissue fragments and the majority of dead cells were removed by rapid filtration through a glass wool column, and cells collected by centrifugation. The cell pellet was suspended in 4 ml of 80% Percoll® (Pharmacia, Uppsala, Sweden) and 4 ml of 40% Percoll® was then layered on. After centrifugation at 600 g for 20 minutes at 15° C., the cells at the interface were collected, washed in RPMI 1640, and counted. Viability, as determined by trypan blue exclusion, was consistently greater than 98%.
Peripheral blood mononuclear cells were isolated from heparinized blood which had been diluted 2:1 with PBS, pH 7.3, and layered onto a gradient containing 4 ml Lympholyte M (Accurate Chemicals, San Diego, Calif.). After centrifugation at 600 g for 20 minutes at 15° C., the cells at the interface were collected, washed in RPMI 1640, and counted. Viability, as determined by trypan blue exclusion, was consistently greater than 98%. Plasma was collected following centrifugation of bloodto whichhad beenadded 10^−3 M EDTA.
mRNA was isolated using oligo dT cellulose minicolumns (Invitrogen San Diego, Calif.). cDNA was synthesized from the mRNA of 100,000 cells for all cell populations except alveolar macrophages (where 20,000 cells were used) using Moloney murine leukemia virus reverse transcriptase and random hexamer oligonucleotides according to the procedure of Kawasaki (PCR Protocols: A Guide to Methods and Applications, Innis et al., eds, pp. 21-27, Academic Press, New York, 1991). […]

[2] = test system: human neutrophils (PA, lyso-PA); test: PA and lyso-PA mass in human neutrophils after hypoxia/reoxygenation; format: cell-based
Procedure: This example provides evidence from a group of experiments of the nexus and relationship between inhibiting linoleate-enriched PA species and reversal of hypoxic/reoxygenation tissue injury with Lisofylline. Lisofylline treated human neutrophils were exposed to hypoxia and then reoxygenation in vitro. Human neutrophils (PMN) were prepared from heparinized blood obtained from consenting, healthy human volunteers, isolated and highly purified (>99%)-by percoll gradient anddifferential centrifugation and resuspended in HBSS (Hanks balanced salt solution). Human neutrophils were placed in hypoxia (95% N2+5% CO2) for 60 min and then reoxygenated (21% O2+5% CO2) for 20 min.
Following hypoxia/reoxygenation, human neutrophils had increased PA concentrations with a retention time (Rf) characteristic of linoleate-enriched PA species. The analysis was done by fixing the neutrophils in ice-cold methanol, extracting the lipids and then separating them by HPLC using a Waters μ-Porosil silica column and an anisocratic gradient (Bursten et al., J. Biol. Chem. 266:20732, 1991). Lipids in the column effluent were monitored at 206-224nm. HPLC fractions were also analyzed by thin layer chromatography (TLC), amine content, acyl content and mass spectroscopy to confirm peak identities. Fast-atom bombardrment (FAB) mass spectroscopy spectra were acquired using a VG 70 SEQ tandem hybrid instrument of EBqQ geometry (VG Analytical, Altricham UK) as described in Bursten et al. The mass of total PA varied from 0.65-0.75% in unstimulated neutrophils to 2.7-3.6% of total detectable lipids in stimulated neutrophils (i.e., increased by 3.5-5 fold), whereas lyso-PA mass in neutrophils pretreated with Lisofylline and subject to hypoxia/reoxygenation stimulation could range as high as 7-8% of total detectable lipids. Hypoxia/reoxygenated neutrophils preincubated with 10 μM to 100 μM Lisofylline had decreased PA and increased lyso-PA total mass compared to untreated but stimulated neutrophils.

[3] = hypoxia/reoxygenated neutrophils preincubated with 10 μM to 100 μM, versus untreated but stimulated

C[C@@H](O)CCCCn1c(=O)c2c(ncn2C)n(C)c1=O [Lisofylline, 1-R-(5-hydroxyhexyl)-3,7-dimethylxanthine]
immunohistochemical staining of lung for TNFα (TNFα): no signal
murine lung cytokine levels (FIG. 5) ([1]; determined by PCR, following hemorrhage and resuscitation): significantly decreased
lung cytokine concentrations (FIG. 7) ([1]; following hemorrhage shock in mice, model of ARDS): significantly decreased
TNFα mRNA levels in PBMC ([1]; hemorrhage/resuscitated mice treated, versus untreated, 3 days): significantly decreased
amounts of mRNA for IL-1β and TNF among cells isolated from BAL samples ([1]; hemorrhaged/resuscitated mice treated, versus normal untreated or normal treated mice): not different
levels of mRNA for IL-1β, IL-6, TNFα and IFN-γ among intraparenchymal pulmonary mononuclear cells ([1]; hemorrhaged/resuscitated mice treated, versus untreated, 3 days): significantly decreased
mRNA levels in PBMC for IL-1β, IL-6, TNFα and IFN-γ ([1]; treatment after hemorrhage): did not affect
PA total mass [2, 3]: decreased
lyso-PA total mass [2, 3]: increased
lyso-PA mass ([2]; neutrophils pretreated with Lisofylline, hypoxia/reoxygenation stimulation, could range as high as): 7-8 % of total detectable lipids
